US20130244879A1, “USE OF LIPO-CHITOOLIGOSACCHARIDES TO INITIATE EARLY FLOWERING AND FRUIT DEVELOPMENT IN PLANTS AND RELATED METHODS AND COMPOSITIONS” (NOVOZYMES BIOLOGICALS HOLDING A/S, priority 2003, published 2013)

How the values were obtained:
[1] = test system: Red tomato (cv. Mountain Spring); assay: Experiment 15: LCO application on early fruit number and yield, field tomato; format: in vivo
Procedure: Red tomato seedlings (cv. Mountain Spring) were transplanted at their 4-leaf stage. 7 plants in one row were transplanted in each plot of 3.5×2.5M2. The row was covered with 65 cm width black plastic mulch, one week before transplanting. Fertilizer (10-52-10) solution of 250 pprn was applied into the planting hole through the mulch when transplanting (approx. 250 ml/plant). the drip irrigation system was set to twice a week and 4 hours each time, depending on the soil moisture. Plants were sprayed with LCO 15 days after transplant (5 ml/plant) and 29 days after transplant (20 ml/plant). Fruits were first harvested 67 days after transplant.

Marigolds = assay: Experiment 12: LCO application on marigolds; format: in vivo, Marigold; details: best treatments
Procedure: Marigolds were planted in 32-cell flat and LCO was applied foliarly to plants 4 weeks after sowing (4 flats/treatment, 1 ml/plant applied containing various levels of LCO). Data collection started from the first flower appearing.

Tomato [2] = assay: Experiment 16: LCO application on fruit number and weight at end of season; format: in vivo; details: LCO applied once at 50 ng, 20-40 days after transplantation
Excerpt: Tomato seedlings (6 leaf-stage) were transplanted. The plants were watered on the day they were transplanted and whenever the soil was very dry during the season. Fertilizer (20-20-20) was applied at 250 kg/ha to the tomato field before transplantation. All tomato plants were supported with sticks when they were heavily loaded with fruit. Fruit yield was finally cumulated at the end of the season 115 days after transplant.

Ridgetown canning tomato = assay: Experiment 10: effect of LCO on Ridgetown canning tomato; format: in vivo; details: for Fruit number (on 24 plants) / Fruit number Increase vs. CK (%) / Fruit weight (kg/24 plants) / Fruit weight Increase vs. CK (%): first harvesting
Procedure: The experiment was conducted at Ridgetown College, University of Guelph, Ridgetown, Ontario. Tomatoes were transplanted in single twin rows, 7 m in length spaced 1.65 m apart. Treatments of LCO were applied three times, two weeks before flowering (28 days after transplant), two weeks after flowering (52 days after transplant) and six weeks after flowering (69 days after transplant). Spray applications were applied using a specialized, small plot research CO2 sprayer with a two-nozzled, hand-held boom applying 200 L/ha of spray. Rates were determined based on 38 tomato plants per plot, replicated 4 times, equaling 152 plants per treatment. Early fruit was harvested for yield evaluation on Aug. 20, 2003.

Cherry tomato = assay: Experiment 14: LCO soil application on cherry tomatoes; format: in vivo
Procedure: Cherry tomato seedlings (5-week old) were transplanted into 5″ pots in the greenhouse. LCO solutions were prepared with water and 50 ml/plant was applied to the soil in the pot after transplantation. Ripened fruit (orange or red) were collected 8 weeks after transplantation.

Tomato [3] = assay: Experiment 6: foliar application of LCO at variable growth stages, field tomato; format: in vivo; design: Fruit # % vs. control / % of weight vs. control: concentration or dose not given beside the values
Excerpt: Tomato seedlings (6-leaf stage) were transplanted in farmland. The plants were watered on the day that they were transplanted and whenever the soil was very dry during the season. Fertilizer (20-20-20) was applied at 250 kg/ha to the tomato field before transplantation. All tomato plants were supported by sticks when they were heavily loaded with fruit. Fruit yield (in the table) was finally cumulated at the end of the season.

[4] = applied 2 weeks before and after flowering
[5] = LCO applied 10 + 20 + 30 + 40 + 50 DATP
[6] = LCO applied 10 + 20 + 30 + 40 DATP

## Lipo-chitooligosaccharides [LCO]
[1]; early fruit number and weight
  optimal application: 75 ng/plant
[1]; foliar spray 15 and 29 days after transplant
  early fruit number and weight: significantly increased
Marigolds
  advanced flowering: 2 days
  increase in number of flowers at 25 days: 8%
Tomato [2]
  increased fruit number: up to 33%
Ridgetown canning tomato; [4]
  increased fruit number: up to 20%
  increased fruit weight: up to 16%
Ridgetown canning tomato; treatment 0-50-0
  Fruit number (on 24 plants): 209AB
  Fruit number Increase vs. CK (%): 14.2%
  Fruit weight (kg/24 plants): 12.598 kg/24 plants
  Fruit weight Increase vs. CK (%): 16.2%
Ridgetown canning tomato; treatment 0-50-75
  Fruit number (on 24 plants): 191AB
  Fruit number Increase vs. CK (%): 4.4%
  Fruit weight (kg/24 plants): 11.352 kg/24 plants
  Fruit weight Increase vs. CK (%): 4.7%
Ridgetown canning tomato; treatment 50-0-0
  Fruit number (on 24 plants): 206AB
  Fruit number Increase vs. CK (%): 12.6%
  Fruit weight (kg/24 plants): 11.916 kg/24 plants
  Fruit weight Increase vs. CK (%): 9.9%
Ridgetown canning tomato; treatment 50-50-0
  Fruit number (on 24 plants): 219A
  Fruit number Increase vs. CK (%): 19.7%
  Fruit weight (kg/24 plants): 12.567 kg/24 plants
  Fruit weight Increase vs. CK (%): 15.9%
Ridgetown canning tomato; treatment 50-75-0
  Fruit number (on 24 plants): 199AB
  Fruit number Increase vs. CK (%): 8.7%
  Fruit weight (kg/24 plants): 11.421 kg/24 plants
  Fruit weight Increase vs. CK (%): 5.3%
Cherry tomato
  dose with best fruit enhancement at the early stage: 10 ng per plant
Tomato [3]; [5]
  % of weight vs. control: 27.8%
  Average Weight (g/fruit): 126.8 g/fruit
  Fruit # % vs. control: 38.41%
  Fruit on 24 plants: 1373a
  Weight (kg) per 24 plants: 174.07a kg
Tomato [3]; [6]
  % of weight vs. control: 12.0%
  Average Weight (g/fruit): 128.0 g/fruit
  Fruit # % vs. control: 20.06%
  Fruit on 24 plants: 1191abc
  Weight (kg) per 24 plants: 152.50ab kg
Tomato [3]; LCO applied 10 + 20 + 30 DATP
  % of weight vs. control: 18.9%
  Average Weight (g/fruit): 126.3 g/fruit
  Fruit # % vs. control: 29.23%
  Fruit on 24 plants: 1282ab
  Weight (kg) per 24 plants: 161.89ab kg
Tomato [3]; LCO applied 10 + 20 DATP
  % of weight vs. control: 12.7%
  Average Weight (g/fruit): 136.4 g/fruit
  Fruit # % vs. control: 13.41%
  Fruit on 24 plants: 1125bc
  Weight (kg) per 24 plants: 153.43ab kg
Tomato [3]; LCO applied 10 DATP (7/4)
  % of weight vs. control: 10.8%
  Average Weight (g/fruit): 118.2 g/fruit
  Fruit # % vs. control: 28.63%
  Fruit on 24 plants: 1276ab
  Weight (kg) per 24 plants: 150.88ab kg
Tomato [3]; LCO applied 20 DATP (7/15)
  % of weight vs. control: 20.3%
  Average Weight (g/fruit): 130.0 g/fruit
  Fruit # % vs. control: 27.02%
  Fruit on 24 plants: 1260ab
  Weight (kg) per 24 plants: 163.78ab kg
Tomato [3]; LCO applied 30 DATP (7/25)
  % of weight vs. control: 17.6%
  Average Weight (g/fruit): 133.5 g/fruit
  Fruit # % vs. control: 20.87%
  Fruit on 24 plants: 1199abc
  Weight (kg) per 24 plants: 160.11ab kg
Tomato [3]; LCO applied 40 DATP (8/8)
  % of weight vs. control: 14.5%
  Average Weight (g/fruit): 118.3 g/fruit
  Fruit # % vs. control: 32.86%
  Fruit on 24 plants: 1318ab
  Weight (kg) per 24 plants: 155.89ab kg
Tomato [3]; LCO applied 50 DATP (8/18)
  % of weight vs. control: 13.6%
  Average Weight (g/fruit): 138.7 g/fruit
  Fruit # % vs. control: 12.40%
  Fruit on 24 plants: 1115bc
  Weight (kg) per 24 plants: 154.62ab kg
Tomato [3]; best of 9 treatments
  increased fruit number compared to untreated control: up to 38.4%
  increased total fruit weight compared to untreated control: up to 27.8%
